molecular target: T1, GRK2 (Homo sapiens, UniProt P25098); assay: hGRK2 LANCE Ultra In Vitro Assay; format: biochemical; conditions: Biological Example 1 GRK2 Lancer IC50 (μM), 10 nM GRK2; 30 or 600 μM ATP (not stated which); multiple measurements listed individually
T1 sequence (P25098 1-689): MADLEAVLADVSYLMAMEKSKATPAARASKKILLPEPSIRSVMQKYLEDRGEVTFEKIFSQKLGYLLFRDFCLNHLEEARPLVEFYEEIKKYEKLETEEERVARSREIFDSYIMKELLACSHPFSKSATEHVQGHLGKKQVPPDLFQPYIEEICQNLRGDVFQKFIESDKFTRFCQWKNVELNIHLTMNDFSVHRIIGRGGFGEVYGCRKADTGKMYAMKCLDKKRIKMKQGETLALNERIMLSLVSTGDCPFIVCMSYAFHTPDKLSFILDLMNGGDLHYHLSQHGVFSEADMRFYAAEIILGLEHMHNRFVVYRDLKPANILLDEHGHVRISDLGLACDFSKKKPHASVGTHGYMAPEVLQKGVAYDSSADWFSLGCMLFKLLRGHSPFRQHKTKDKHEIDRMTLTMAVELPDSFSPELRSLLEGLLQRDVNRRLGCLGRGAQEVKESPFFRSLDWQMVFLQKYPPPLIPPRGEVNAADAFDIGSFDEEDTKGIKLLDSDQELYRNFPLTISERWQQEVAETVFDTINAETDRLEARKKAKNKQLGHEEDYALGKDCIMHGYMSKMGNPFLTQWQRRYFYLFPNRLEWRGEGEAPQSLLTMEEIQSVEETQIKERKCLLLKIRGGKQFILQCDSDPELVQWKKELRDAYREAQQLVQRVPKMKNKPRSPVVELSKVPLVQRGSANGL
Procedure, shortened: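 TR-FRET kinase assay with 10 nM GRK2 preincubated 30 min with compound, then 200 nM ULight-peptide and 30 or 600 μM ATP in HEPES pH 7.5, 10 mM MgCl2, 1% DMSO; 120 or 60 min at ambient temperature respectively.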

First: COc1cccc([C@@H](C)N2Cc3c(cc(-c4cn[nH]c4)cc3-c3ccc(C(C)(C)O)nc3)C2=O)c1 [Compound 141, (R)-4-(6-(2-hydroxypropan-2-yl)pyridin-3-yl)-2-(1-(3-methoxyphenyl)ethyl)-6-(1H-pyrazol-4-yl)isoindolin-1-one]
Second: COc1cccc([C@@H](C)N2Cc3c(cc(-c4cn[nH]c4)cc3-c3ccc(C(F)(F)F)nc3)C2=O)c1 [Compound 145, (R)-2-(1-(3-methoxyphenyl)ethyl)-6-(1H-pyrazol-4-yl)-4-(6-(trifluoromethyl)pyridin-3-yl)isoindolin-1-one]
The IC50 of the first is 14-fold lower: 0.02 µM for the first, 0.285 µM for the second.

Compared with `COc1cccc(C(CO)N2Cc3c(cc(-c4cn[nH]c4)cc3-c3cccnc3)C2=O)c1` (stereo not drawn) [Compound 142, 2-(2-hydroxy-1-(3-methoxyphenyl)ethyl)-6-(1H-pyrazol-4-yl)-4-(pyridin-3-yl)isoindolin-1-one], `COc1cccc(C(CO)N2Cc3c(cc(-c4cn[nH]c4)cc3-c3cccc(O)c3)C2=O)c1` (stereo not drawn) [Compound 143, 2-(2-hydroxy-1-(3-methoxyphenyl)ethyl)-4-(3-hydroxyphenyl)-6-(1H-pyrazol-4-yl)isoindolin-1-one] is 1.6-fold lower in IC50: 0.008 µM for the first, 0.005 µM for the second.

`COc1cccc(CN2C(=O)c3cc(-c4cn[nH]c4)ccc3C23CCC2NC(=O)OC23)c1` (stereo not drawn) [Compound 150, 2′-(3-methoxybenzyl)-5′-(1H-pyrazol-4-yl)-3a,4,5,6a-tetrahydrospiro[cyclopenta[d]oxazole-6,1′-isoindoline]-2,3′(3H)-dione] and `COc1cccc(CN2C(=O)c3cc(-c4cn[nH]c4)ccc3C23CCC2OC(=O)NC23)c1` (stereo not drawn) [Compound 151, 2′-(3-methoxybenzyl)-5′-(1H-pyrazol-4-yl)-3a,5,6,6a-tetrahydrospiro[cyclopenta[d]oxazole-4,1′-isoindoline]-2,3′(3H)-dione] are within 1.5-fold of each other in IC50: 0.013 µM for the first, 0.011 µM for the second.

Going from `COc1cccc(C(CO)N2Cc3c(cc(-c4cn[nH]c4)cc3-c3cncc(F)c3)C2=O)c1` (stereo not drawn) [Compound 152, 4-(5-fluoropyridin-3-yl)-2-(2-hydroxy-1-(3-methoxyphenyl)ethyl)-6-(1H-pyrazol-4-yl)isoindolin-1-one] to `COc1cccc(C(CO)N2Cc3c(cc(-c4cn[nH]c4)cc3-c3cncnc3)C2=O)c1` (stereo not drawn) [Compound 158, 2-(2-hydroxy-1-(3-methoxyphenyl)ethyl)-6-(1H-pyrazol-4-yl)-4-(pyrimidin-5-yl)isoindolin-1-one], the IC50 rises from 0.017 µM to 0.027 µM (1.6-fold). The first is the more potent here.

Compared with `COc1cccc(C(CO)N2Cc3c(cc(-c4cn[nH]c4)cc3-c3ccc(O)cc3)C2=O)c1` (stereo not drawn) [Compound 153, 2-(2-Hydroxy-1-(3-methoxyphenyl)ethyl)-4-(4-hydroxyphenyl)-6-(1H-pyrazol-4-yl)isoindolin-1-one], `COc1cccc([C@@H](C)N2Cc3c(cc(-c4cn[nH]c4)cc3-c3ccnc(C(C)(C)C)c3)C2=O)c1` [Compound 154, (R)-4-(2-(tert-butyl)pyridin-4-yl)-2-(1-(3-methoxyphenyl)ethyl)-6-(1H-pyrazol-4-yl)isoindolin-1-one] is 49-fold higher in IC50: 0.019 µM for the first, 0.932 µM for the second.

Going from `COc1cccc([C@@H](C)N2Cc3c(cc(-c4cn[nH]c4)cc3N3CCNCC3)C2=O)c1` [Compound 155, (R)-2-(1-(3-methoxyphenyl)ethyl)-4-(piperazin-1-yl)-6-(1H-pyrazol-4-yl)isoindolin-1-one] to `COc1cccc([C@@H](C)N2Cc3c(cc(-c4cn[nH]c4)cc3N3CCN(C)CC3)C2=O)c1` [Compound 156, (R)-2-(1-(3-methoxyphenyl)ethyl)-4-(4-methylpiperazin-1-yl)-6-(1H-pyrazol-4-yl)isoindolin-1-one], the IC50 rises from 0.007 µM to 0.011 µM (1.6-fold). The first is the more potent here.

Compared with `CC(C)NC(=O)c1cccc(CN2Cc3cc(F)c(-c4cn[nH]c4)cc3C2=O)c1` [Compound 166], `CCOc1cccc([C@@H](C)N2Cc3ccc(-c4ccnc5[nH]ccc45)cc3C2=O)c1` [Compound 167] is higher in IC50: 0.005 µM for the first, over 20 µM for the second.

same assay, conditions: read-out: Biological Example 1 GRK2 Lancer IC50; 10 nM GRK2; 30 or 600 μM ATP (not stated which); multiple measurements listed individually

Work on `COc1cccc([C@@H](C)N2Cc3c(cc(-c4cn[nH]c4)cc3C3CCNC3)C2=O)c1` (stereo partly drawn) [Compound 144, 2-((R)-1-(3-methoxyphenyl)ethyl)-6-(1H-pyrazol-4-yl)-4-(pyrrolidin-3-yl)isoindolin-1-one] yielded an IC50 of 0.007 µM.
